{"source": "the NIST ThermoML archive (doi:10.1016/j.jct.2013.12.033)", "conditions": "Liquid, Closed cell (Static) method", "note": "± gives the expanded uncertainty stated by the source.", "data": [{"smiles": "c1ccsc1", "note": "[thiophene]", "values": [{"measurement": "vapor or sublimation pressure", "setting": "273.15 K", "value": "2.778 ± 0.17", "unit": "kPa"}, {"measurement": "vapor or sublimation pressure", "setting": "283.15 K", "value": "4.893 ± 0.29", "unit": "kPa"}, {"measurement": "vapor or sublimation pressure", "setting": "293.15 K", "value": "8.217 ± 0.49", "unit": "kPa"}, {"measurement": "vapor or sublimation pressure", "setting": "303.15 K", "value": "13.23 ± 0.8", "unit": "kPa"}, {"measurement": "vapor or sublimation pressure", "setting": "313.15 K", "value": "20.52 ± 1.2", "unit": "kPa"}, {"measurement": "vapor or sublimation pressure", "setting": "323.15 K", "value": "30.8 ± 1.9", "unit": "kPa"}, {"measurement": "vapor or sublimation pressure", "setting": "333.15 K", "value": "44.88 ± 2.7", "unit": "kPa"}, {"measurement": "vapor or sublimation pressure", "setting": "343.15 K", "value": "63.71 ± 3.8", "unit": "kPa"}, {"measurement": "vapor or sublimation pressure", "setting": "353.15 K", "value": "88.33 ± 5.3", "unit": "kPa"}, {"measurement": "vapor or sublimation pressure", "setting": "363.15 K", "value": "119.9 ± 7.2", "unit": "kPa"}]}, {"smiles": "c1ccncc1", "note": "[pyridine]", "values": [{"measurement": "vapor or sublimation pressure", "setting": "273.15 K", "value": "0.5993 ± 0.037", "unit": "kPa"}, {"measurement": "vapor or sublimation pressure", "setting": "283.15 K", "value": "1.136 ± 0.071", "unit": "kPa"}, {"measurement": "vapor or sublimation pressure", "setting": "293.15 K", "value": "2.049 ± 0.12", "unit": "kPa"}, {"measurement": "vapor or sublimation pressure", "setting": "303.15 K", "value": "3.535 ± 0.21", "unit": "kPa"}, {"measurement": "vapor or sublimation pressure", "setting": "313.15 K", "value": "5.863 ± 0.35", "unit": "kPa"}, {"measurement": "vapor or sublimation pressure", "setting": "323.15 K", "value": "9.383 ± 0.56", "unit": "kPa"}, {"measurement": "vapor or sublimation pressure", "setting": "333.15 K", "value": "14.55 ± 0.88", "unit": "kPa"}, {"measurement": "vapor or sublimation pressure", "setting": "343.15 K", "value": "21.92 ± 1.3", "unit": "kPa"}, {"measurement": "vapor or sublimation pressure", "setting": "353.15 K", "value": "32.17 ± 1.9", "unit": "kPa"}, {"measurement": "vapor or sublimation pressure", "setting": "363.15 K", "value": "46.13 ± 2.8", "unit": "kPa"}]}]}
